{"source": "patent US20210369698A1", "about": "(Attillaps Holdings, priority 2019, published 2021)", "system": "Demodex mites", "conditions": "10% chloroquine in water; in vitro; water control 44.8 hours", "procedure": "In vitro efficacy and mite lifetimes: Relative efficacy of various formulations are evaluated with a demodex survival time experiments. FIG. 3 tabulates demodex survival time, expressed in terms of LT50 (time at which 50% of demodex mites are killed) and/or average minutes to death for various active agents."}
{"smiles": "CCN(CC)CCCC(C)Nc1ccnc2cc(Cl)ccc12", "note": "(stereo not shown) [chloroquine, Chloroquine]", "values": [{"measurement": "LT50 (time at which 50% of demodex mites are killed)", "result": 31.6, "unit": "h"}]}
